Where “and” joins values, the source holds several entries; their conditions need not be identical. Equal entries are not always repeated. Where two headings read alike, the source gives them in different places.
Experiments:
[1] = molecular target: T1, GLP (Homo sapiens, UniProt Q9H9B1); experiment: Methyltransferase selectivity assay (SPA); type: biochemical; conditions: EHMT1, Exp1, Exp2
T1 construct: purchased Structural Genomics Consortium (SGC Toronto) in-house methyltransferase panel
T1 sequence (Q9H9B1 1-1298): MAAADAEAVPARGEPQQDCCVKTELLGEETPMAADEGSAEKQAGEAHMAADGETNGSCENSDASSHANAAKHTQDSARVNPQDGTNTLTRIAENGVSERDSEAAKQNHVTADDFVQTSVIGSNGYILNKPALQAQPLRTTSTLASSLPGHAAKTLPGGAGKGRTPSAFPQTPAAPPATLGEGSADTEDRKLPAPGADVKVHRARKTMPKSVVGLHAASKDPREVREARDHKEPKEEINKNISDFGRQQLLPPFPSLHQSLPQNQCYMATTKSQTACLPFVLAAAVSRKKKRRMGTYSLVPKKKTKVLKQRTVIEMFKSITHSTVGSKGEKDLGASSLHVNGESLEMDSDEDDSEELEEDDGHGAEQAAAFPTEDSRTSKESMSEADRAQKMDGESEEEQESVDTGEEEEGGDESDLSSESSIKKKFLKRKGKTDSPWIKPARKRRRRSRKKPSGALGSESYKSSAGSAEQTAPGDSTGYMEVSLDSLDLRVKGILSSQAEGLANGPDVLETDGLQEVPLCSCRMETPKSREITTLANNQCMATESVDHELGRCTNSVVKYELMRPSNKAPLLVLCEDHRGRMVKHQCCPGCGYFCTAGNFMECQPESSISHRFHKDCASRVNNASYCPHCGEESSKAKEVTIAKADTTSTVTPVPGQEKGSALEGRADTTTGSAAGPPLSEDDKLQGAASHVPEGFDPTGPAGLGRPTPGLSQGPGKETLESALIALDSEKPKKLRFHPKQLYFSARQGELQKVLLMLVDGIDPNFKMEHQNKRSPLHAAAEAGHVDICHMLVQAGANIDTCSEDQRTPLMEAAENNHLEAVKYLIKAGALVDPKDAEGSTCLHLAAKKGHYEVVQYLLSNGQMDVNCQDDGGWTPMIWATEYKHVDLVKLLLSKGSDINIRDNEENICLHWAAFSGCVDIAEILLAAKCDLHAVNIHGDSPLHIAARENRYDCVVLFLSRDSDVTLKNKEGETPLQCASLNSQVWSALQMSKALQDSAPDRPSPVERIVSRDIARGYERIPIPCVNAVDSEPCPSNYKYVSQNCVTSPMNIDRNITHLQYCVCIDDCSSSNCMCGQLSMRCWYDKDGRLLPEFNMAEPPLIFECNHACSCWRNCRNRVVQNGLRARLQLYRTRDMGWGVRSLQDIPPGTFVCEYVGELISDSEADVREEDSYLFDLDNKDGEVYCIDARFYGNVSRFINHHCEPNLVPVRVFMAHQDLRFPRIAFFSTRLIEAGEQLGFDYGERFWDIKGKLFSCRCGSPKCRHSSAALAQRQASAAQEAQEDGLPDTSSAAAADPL
Experimental: (§1) Selectivity against methyltransferases were determined as described previously. Details of the assays are described in the supplementary methods.
(§2) Methyltransferase selectivity assay1
(§3) The effect of chemical probes and negative controls on the methyltransferase activities of protein, DNA and RNA methyltransferases was tested by radiometric assays using 3H-SAM. For proteins such as MLL1 trimeric, MLL3 pentameric, EZH1 (PRC2) pentameric, and EZH2 (PRC2) trimeric complexes, as well as G9a, GLP, SUV39H1, SUV39H2, SUV420H1, SUV420H2, SETD2, SETD8, SETDB1, SETD7, PRMT1, PRMT3, PRMT4, PRMT5/ MEP50 complex, PRMT6, PRMT7, PRMT8, PRMT9, PRDM9, SMYD2, SMYD3, DNMT1, and BCDIN3D the incorporation of a tritium-labeled methyl group into biotinylated substrate was monitored using scintillation proximity assay (SPA). Briefly, a 10 µL reaction containing 3H-SAM and substrate at concentrations close to the apparent Km values for each enzyme (balanced conditions) was prepared. The reactions were quenched with 10 µL of 7.5 M guanidine hydrochloride; 180 µL of 20 mM Tris buffer (pH 8.0) were added, and the mixture was transferred to a 96-well FlashPlate and incubated for 1 h. The counts per minute (CPM) was measured on a TopCount plate reader. The CPM in the absence of compound or enzyme was defined as 100% activity and background (0%), respectively, for each dataset. […]

[2] = molecular target: T2, PRMT9 (Homo sapiens, UniProt Q6P2P2); experiment: Methyltransferase selectivity assay (SPA); type: biochemical
T2 construct: purchased Structural Genomics Consortium (SGC Toronto) in-house methyltransferase panel
T2 sequence (Q6P2P2 1-845): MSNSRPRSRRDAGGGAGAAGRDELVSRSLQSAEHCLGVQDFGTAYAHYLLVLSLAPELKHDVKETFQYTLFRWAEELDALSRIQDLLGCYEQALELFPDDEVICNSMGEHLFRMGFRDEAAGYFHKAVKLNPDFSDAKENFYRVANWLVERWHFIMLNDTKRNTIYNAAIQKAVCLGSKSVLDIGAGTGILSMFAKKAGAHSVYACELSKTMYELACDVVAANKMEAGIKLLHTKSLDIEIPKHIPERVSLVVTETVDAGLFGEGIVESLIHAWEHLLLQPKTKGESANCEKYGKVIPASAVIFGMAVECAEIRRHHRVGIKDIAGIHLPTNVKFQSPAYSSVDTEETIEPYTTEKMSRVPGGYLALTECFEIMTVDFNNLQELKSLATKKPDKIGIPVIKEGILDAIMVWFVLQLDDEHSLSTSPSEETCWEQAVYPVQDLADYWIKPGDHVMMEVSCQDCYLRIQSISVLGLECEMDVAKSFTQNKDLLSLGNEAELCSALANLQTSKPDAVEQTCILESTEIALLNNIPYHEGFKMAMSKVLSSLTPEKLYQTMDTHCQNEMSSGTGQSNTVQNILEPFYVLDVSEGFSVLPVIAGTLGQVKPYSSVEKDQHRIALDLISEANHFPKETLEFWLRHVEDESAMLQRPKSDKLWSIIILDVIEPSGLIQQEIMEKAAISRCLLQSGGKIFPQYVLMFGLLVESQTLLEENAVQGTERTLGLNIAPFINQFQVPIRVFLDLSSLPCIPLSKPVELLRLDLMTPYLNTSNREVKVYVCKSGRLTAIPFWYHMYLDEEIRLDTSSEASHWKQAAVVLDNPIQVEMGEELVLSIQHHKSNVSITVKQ
Experimental: as §1, §2, §3

| SMILES | Activity % ([1]; 1µM compound, 1 µM) | activity at 1 µM ([1]; 1µM compound, read-out: Activity %) | Activity % ([1]; 10µM compound, 10 µM) | activity at 10 µM ([1]; 10µM compound, read-out: Activity %) | activity at 1 µM ([2]; 1µM compound, Exp1, Exp2, read-out: Activity %) | Activity % ([2]; 10µM compound, Exp1, Exp2, 10 µM) | activity at 1 µM ([1]; 1µM compound) | activity at 10 µM ([1]; 10µM compound) | activity at 1 µM ([2]; 1µM compound, Exp1, Exp2) | Activity % ([2]; 1µM compound, Exp1, Exp2, 1 µM) | activity at 10 µM ([2]; 10µM compound, Exp1, Exp2) |
| --- | --- | --- | --- | --- | --- | --- | --- | --- | --- | --- | --- |
| COc1cc(OC)cc(-c2noc(N3CCN(C)C4(CCN(c5ccnc(C)c5)CC4)C3)n2)c1 [MRK-740] | 100% | 93% | 84% | 94% | 100% | 89% and 114% | – | – | – | – | – |
| COc1cc(OC)cc(-c2noc(N3CCN(C)C4(CCN(c5ccccc5)CC4)C3)n2)c1 [MRK-740 -NC] | – | – | 98% | – | – | – | 100% | 95% | 102% | 106% | 98% |

— paper PMC6917776, “Discovery of a chemical probe for PRDM9” (Nature Communications, 2019)
